Experimental data as given in patent US7384789B2, “Divalent metal ion sensors and binders” (The University of North Dakota, priority 2006, dated 2008).
pKd: −log10 of the molar value.

Experiments:
[1] = Cai et al., Inorg. Chim. Acta 1997; cited from earlier work
[2] = Fluorescence emission profile with stoichiometric divalent metal ion: Ni^2+; settings: 200 μM compound, λex/λem: compound 1 300/390 nm, compound 3 315/357 nm, compound 4 365/520 nm
Method: (§1) Commercially available reagents, obtained from Acros Organics and Aldrich were used as received. All solvents were distilled before use. Reactions were monitored by thin-layer chromatography (TLC) and visualization was accomplished with a UV lamp. Reaction mixtures were purified by column chromatography, performed with the indicated solvents using silica gel (230-400 mesh). The Rf values were calculated based on the eluents used for purification. The yields reported refer to chromatographically and spectroscopically pure compounds. The purity of the compounds were ascertained by GC/MS analysis (HP 5890 Series II GC fitted with HP 5971 Series Mass Selective Detector). ^1H and proton decoupled ^13C NMR spectra were recorded on a Bruker AMX 500 MHz spectrometer at ambient temperature. The fluorescence spectra were obtained using Jobin Yvon Horiba Fluorolog-3 spectrofluorometer. […] The fluorescence measurements were carried out on 3 mL samples of the sensor and 3 μL aliquots of the 200 mM metal ion solution in HEPES were added to the sample to make up the desired metal concentrations.
(§2) The influence of divalent metal ions on the fluorescence spectral profile of compound 1 is shown in FIG. 1, where the fluorescence emission spectra of 200 μM compound 1 (λex=300 nm) with stoichiometric concentrations of selected divalent metal ions. Compound 1 has a weak fluorescence emission peak around 386-390 nm, which is differently affected by different metal ions. […] In contrast, the fluorescence intensity of compound 1 decreases in the presence of Cu^2+, Ni^2+, and Co^2+.
(§3) The influence of divalent metal ions on the fluorescence spectral profile of compound 3 is shown in FIG. 3, where the fluorescence emission spectra of 200 μM […] (λex=315 nm) with stoichiometric concentrations of selected divalent metal ions. Compound 3 has a weak fluorescence emission peak around 355-360 nm, which is differently affected by different metal ions. […] In contrast, as expected, the fluorescence intensity of compound 3 decreases in the presence of Cu^2+, Ni^2+, and Co^2+. […]

[3] = Fluorescence emission profile with stoichiometric divalent metal ion: Co^2+; settings: 200 μM compound, λex/λem: compound 1 300/390 nm, compound 3 315/357 nm, compound 4 365/520 nm
Method: as §1, §2, §3

[4] = Fluorescence emission profile with stoichiometric divalent metal ion: Ca^2+; settings: 200 μM compound, λex/λem: compound 1 300/390 nm, compound 3 315/357 nm, compound 4 365/520 nm
Method: as §1, §2, §3

[5] = Fluorescence emission profile with stoichiometric divalent metal ion: Cu^2+; settings: 200 μM compound, λex/λem: compound 1 300/390 nm, compound 3 315/357 nm, compound 4 365/520 nm
Method: as §1, §2, §3

[6] = Fluorescence emission profile with stoichiometric divalent metal ion: Cd^2+; settings: 200 μM compound, λex/λem: compound 3 315/357 nm, compound 4 365/520 nm
Method: as §1
(§4) The influence of divalent metal ions on the fluorescence spectral profile of compound 3 is shown in FIG. 3, where the fluorescence emission spectra of 200 μM compound 1 (λex=315 nm) with stoichiometric concentrations of selected divalent metal ions. […]

[7] = Spectrofluorometric titration of compound with Zn^2+ (ZnCl2); format: binding; settings: approx.
Method: as §1
To determine the magnitude of Zn^2+ induced fluorescence spectral changes of compound 1 as well as its binding affinity, a detailed spectrofluorometric titration study was performed.

[8] = Fluorescence emission profile with stoichiometric divalent metal ion: Zn^2+; settings: for effect of Zn^2+ on fluorescence emission intensity: stoichiometric ion, λex/λem: compound 1 300/390 nm, compound 3 315/357 nm, compound 4 365/520 nm
Method: Commercially available reagents, obtained from Acros Organics and Aldrich were used as received. All solvents were distilled before use. Reactions were monitored by thin-layer chromatography (TLC) and visualization was accomplished with a UV lamp. Reaction mixtures were purified by column chromatography, performed with the indicated solvents using silica gel (230-400 mesh). The Rf values were calculated based on the eluents used for purification. The yields reported refer to chromatographically and spectroscopically pure compounds. The purity of the compounds were ascertained by GC/MS analysis (HP 5890 Series II GC fitted with HP 5971 Series Mass Selective Detector). ^1H and proton decoupled ^13C NMR spectra were recorded on a Bruker AMX 500 MHz spectrometer at ambient temperature. The fluorescence spectra were obtained using Jobin Yvon Horiba Fluorolog-3 spectrofluorometer. The HEPES buffer was prepared from commercially available 1M solution of the free acid and the pH was adjusted to 7.0 by the addition of KOH pellets in the presence of 0.135 M NaCl. The fluorescence measurements were carried out on 3 mL samples of the sensor and 3 μL aliquots of the 200 mM metal ion solution in HEPES were added to the sample to make up the desired metal concentrations.
as §2
The influence of divalent metal ions on the fluorescence spectral profile of compound 3 is shown in FIG. 3, where the fluorescence emission spectra of 200 μM […] (λex=315 nm) with stoichiometric concentrations of selected divalent metal ions. Compound 3 has a weak fluorescence emission peak around 355-360 nm, which is differently affected by different metal ions. […] In contrast, as expected, the fluorescence intensity of compound 3 decreases in the presence of Cu^2+, Ni^2+, and Co^2+. […] Titration of compound 3 with Zn^2+ indicates a Kd value of 2 mM (approx.).
The influence of divalent metal ions on the fluorescence spectral profile of compound is shown in FIG. 4, where the fluorescence emission spectra of 200 μM […] (λex=365 nm) with stoichiometric concentrations of selected divalent metal ions. Compound 4 has a UV absorption maximum at 425 nm. […] Excitation at shorter wavelengths e.g. at 365 nm leads to a weak emission peak around 520 nm, which is differently affected by different metal ions.

[9] = Fluorescence emission profile with stoichiometric divalent metal ion: Mg^2+; settings: 200 μM compound, λex/λem: compound 1 300/390 nm, compound 3 315/357 nm, compound 4 365/520 nm
Method: as §1, §2, §3

[10] = Fluorescence emission profile with stoichiometric divalent metal ion: Hg^2+; settings: 200 μM compound, λex/λem: compound 3 315/357 nm, compound 4 365/520 nm
Method: as §1, §4

[11] = Solubility; format: physicochemical; settings: for solubility: solvent not given

Compound | divalent metal binding [1] | effect of Ni^2+ on fluorescence emission intensity [2] | effect of Co^2+ on fluorescence emission intensity [3] | effect of Ca^2+ on fluorescence emission intensity [4] | effect of Cu^2+ on fluorescence emission intensity [5] | effect of Cd^2+ on fluorescence emission intensity [6] | pKd [7] | effect of Zn^2+ on fluorescence emission intensity ([8]; 200 μM compound) | effect of Mg^2+ on fluorescence emission intensity [9] | effect of Hg^2+ on fluorescence emission intensity [10] | solubility in the aqueous medium ([11]; aqueous medium) | solubility [11] | Zn^2+-induced fluorescence enhancement in the presence of excess Ca^2+ ([8]; 100 fold excess of Ca^2+) | increase of fluorescence emission intensity in the presence of Zn^2+ ([8]; stoichiometric concentration of Zn^2+, 200 μM compound, λex=300 nm) | solubility in water and methanol ([11]; water and methanol)
Cc1cc(N(CC(=O)O)CC(=O)O)c(O)c(N(CC(=O)O)CC(=O)O)c1 [N,N,N′,N′-tetrakis(carboxylatemethyl)-2,6-diaminocresol] | binding to only Co^2+ or Cu^2+ |  |  |  |  |  |  |  |  |  |  |  |  |  | 
O=C([O-])CN(CC(=O)[O-])c1cccc(N(CC(=O)[O-])CC(=O)[O-])c1.[Na+].[Na+].[Na+].[Na+] [compound 3, Sodium 1,3-diamino-(N,N,N′,N′-tetraacetate)benzene] |  | decreases | decreases | slightly enhanced | decreases | slightly enhanced | ~2.70 | enhanced significantly | slightly enhanced | slightly enhanced |  |  |  |  | 
COc1c(N(CC(=O)[O-])CC(=O)[O-])cc(C)cc1N(CC(=O)[O-])CC(=O)[O-].[K+].[K+].[K+].[K+] [compound 1, Potassium-2,6-diamino-(N,N,N′,N′-tetraacetate)-4-methylanisole] |  | decreases | decreases | only slightly increased | decreases |  |  | most dramatic effect | barely affected |  | high solubility | readily soluble | maintained | about 10 fold | 
Zinc-2,6-diamino-(N,N,N′,N′-tetraacetate)-4-methylanisole [compound 1-Zn complex] |  |  |  |  |  |  |  |  |  |  |  | low solubility |  |  | low solubility
Sodium 2,6-diamino-(N,N,N′,N′-tetraacetate)-3-nitroanisole [compound 4] |  | significantly quenched | significantly quenched | slightly quenched | significantly quenched | substantially enhanced |  | substantially enhanced | slightly quenched | no discernable effect |  |  |  |  | 
